{"source": "patent US8536132B2", "about": "“Lymphatic zip codes in tumors and pre-malignant lesions” (Sanford-Burnham Medical Research Institute, priority 2006, dated 2013)", "key": {"[1]": {"test_system": "human prostate tumor sections", "assay": "Phage overlay of tissue sections from human prostate cancer", "conditions": "two primary human prostate cancers", "procedure": "The frozen sections of human prostate tumor specimens were obtained from Dr. Daniel Mercola (Sidney Kimmel Cancer Center, La Jolla, Calif.). The sections (5 μm) were preincubated with blocking buffer (5% normal goat serum and 0.5% BSA in 1×PBS) for 1 hr at room temperature, washed three times with diluted blocking buffer (1:10), and phage (3×10^9 pfu) were incubated on the section for 4 hrs. After 3 washes, rabbit anti-phage antibody (10 μg/ml) was added and the phage incubated for 2 hrs. The slides were washed and incubated with AlexaFluor-488 goat anti-rabbit IgG for 1 hr. After further washes, the slides were mounted with Vectashield (VECTOR, Burlingame, Calif.)."}, "TRAMP PIN lesions": {"test_system": "TRAMP PIN lesions", "assay": "In vivo phage homing to TRAMP pre-malignant (PIN) lesions", "parameters": "species or system mouse", "conditions": "for phage homing to TRAMP pre-malignant lesions (in words): i.v. injected phage", "procedure": "(§1) The following cell lines were maintained in DMEM supplemented with 10% FCS: C8161 human melanoma, MDA-MB-435 human breast cancer, KRIB human osteosarcoma, and human prostate cancer cells PPC1, DU145. LNCaP human prostate cancer cell line was grown in RPMI 1640 medium with 10 mM HEPES, 1 mM sodium pyruvate and 1.5 g/L sodium bicarbonate supplemented with 10% FCS. M12 human prostate cancer cell line was cultured in RPMI 1640 with 5 μg/ml insulin-transferrin-sodium selenite (ITS), 2.5 μg/ml fungizone, 50 μg/ml gentamycin, 0.2 μM dexamethasone, 10 ng/ml epidermal growth factor (EGF), and 5% FCS (Bae et al., 1998). To produce tumors, nude BALB/c and C56BL/6 mice were subcutaneously (C8161, KRIB, and PPC1) or orthotopically ([…], PPC1, DU145, M12, and LNCaP) injected with 1×10^6 tumor cells. Transgenic mouse tumor models included TRAMP prostate cancer, MMTV-PyMT breast cancer, and K14-HPV16 cervical cancer. To initiate cervical carcinogenesis, female K14-HPV16 mice (Arbeit et al., 1994) were treated with 17β-estradiol (E2; (Arbeit et al., 1996; Giraudo et al., 2004). Briefly, one-month-old virgin female transgenic (heterozygous K14-HPV16, 1203#1) and nontransgenic (FVB/n) mice were anesthetized with isoflurane, and continuous release pellets that deliver E2 at doses of 0.05 mg over 60 days (Innovative Research of America, Sarasota, Fla., USA) were implanted subcutaneously in the dorsal back skin. Subsequent pellets were implanted at 3 and 5 months of age for a total of 6 months of hormone treatment. K14-HPV16 mice were maintained in the FVB/n background (FVB/n; The Jackson Laboratory). The mice were maintained in accordance with the University of California, San Francisco (UCSF) institutional guidelines governing the care of laboratory mice. The animal experimentation was approved by Animal Research Committees at UCSF or The Burnham Institute.\n(§2) In vivo homing specificity of phage was tested as described (Hoffman, 2004). Briefly, mice bearing tumors were anesthetized and intravenously injected with 5×10^9 pfu of phage. After 7 min, the mice were perfused through the heart with PBS containing 0.5% BSA. The tumor and control organs were dissected from each mouse and the phage were rescued and tittered. For histology analysis, the mice were perfused with 4% PFA 30 min after the injection of phage. Tissues were embedded in Tissue-Tek O.C.T. and 5 μm sections were prepared for phage immunostaining."}, "[2]": {"test_system": "K14-HPV16/E2 cervical tumors", "assay": "In vivo phage homing to K14-HPV16/E2 cervical tumors", "parameters": "species or system mouse", "conditions": "for phage homing to K14-HPV16/E2 cervical tumors (in words): i.v. injected phage; for Fold over control phage / Specific Homing: phage homing in vivo, K14-HPV16/E2 cervical cancer / cervical tumors", "procedure": "as §1, §2"}, "[3]": {"test_system": "pre-malignant TRAMP lesions", "procedure": "(§3) Custom immunization to produce a rabbit antiserum against mouse Prox-1 was performed by Proteintech Inc. New Zealand White rabbits were immunized with a fusion protein of GST-C-terminal fragment of Prox-1 protein. The antibody was affinity purified on the fusion protein and absorbed with GST. […] Antibodies against the lymphatic markers anti-LYVE-1 (Laakkonen et al., 2002) and anti-podoplanin (kindly provided by T. Petrova and K. Alitalo), rat monoclonal anti-mouse CD31 (BD Pharmingen), rat anti-mouse MECA-32 (Pharmingen), rabbit polyclonal anti-T7 phage, and rat anti-mouse VEGFR3 were used for immunohistochemical staining of frozen tissue sections as described (Joyce et al., 2003; Laakkonen et al., 2002). The corresponding secondary antibodies were added and incubated for 1 hr at room temperature: AlexaFluor-488 goat anti-rat or rabbit IgG (1:1000; Molecular Probes, Eugene, Oreg.), AlexaFluor-594 goat anti-rat or rabbit IgG (1:1000, Molecular Probes), AlexaFluor-594 donkey anti-mouse or goat IgG (1:1000, Molecular Probes), and AlexaFluor-488 donkey anti-mouse or goat IgG (1:1000; Molecular Probes), respectively. The slides were washed three times with PBS and mounted in Vectashield Mounting Medium with DAPI (Vector Laboratories, Burlingame, Calif.). Blood vessels were also visualized by intravenously injecting Lycopersicon esculentum (tomato) lectin conjugated to fluorescein (100 μg of lectin in 200 μl of PBS; Vector Laboratories). […] The injected peptides were allowed to circulate 30 min to 2 hrs, and the mice were perfused with 4% paraformaldehyde through the left ventricle of heart. Tissues were dissected and frozen in OCT embedding medium (Tissue-Tek, Elkhart, Ind.). The frozen sections were prepared for immunohistological analysis."}, "TRAMP prostate tumors [4]": {"test_system": "TRAMP prostate tumors", "conditions": "for fluorescent peptide in TRAMP prostate tumors (in words): fluorescein-conjugated peptide i.v.", "procedure": "as §3"}, "[5]": {"test_system": "K14-HPV16/E2 cervical dysplasia", "assay": "In vivo phage homing to K14-HPV16/E2 cervical dysplasia (CIN-3)", "parameters": "species or system mouse", "procedure": "as §1, §2"}, "normal tissues": {"test_system": "normal tissues", "assay": "In vivo phage homing to normal and control tissues", "parameters": "species or system mouse", "conditions": "for phage in other tissues versus nonrecombinant control phage: lymph nodes, kidneys, lungs, skin, gut", "procedure": "as §2"}, "MMTV-PyMT breast tumors": {"test_system": "MMTV-PyMT breast tumors", "assay": "In vivo phage homing to MMTV-PyMT breast tumors", "parameters": "species or system mouse", "conditions": "for phage homing to MMTV-PyMT breast tumors (in words): i.v. injected phage; for Fold over control phage / Specific Homing: phage homing in vivo, MMTV-PyMT breast tumors", "procedure": "as §1, §2"}, "TRAMP prostate tumors [6]": {"test_system": "TRAMP prostate tumors", "assay": "In vivo phage homing to TRAMP prostate tumors", "parameters": "species or system mouse", "conditions": "for Fold over control phage / Specific Homing: phage homing in vivo, TRAMP prostate tumors; for phage homing to TRAMP prostate tumors (in words): i.v. injected phage", "procedure": "as §1, §2"}, "cultured PPC1 cells": {"test_system": "cultured PPC1 cells", "assay": "REA phage binding to cultured PPC1 cells", "type": "cell-based, human", "conditions": "listed as REA-phage"}, "[7]": {"test_system": "PPC1 orthotopic xenografts", "assay": "In vivo phage homing to PPC1 orthotopic xenografts", "parameters": "species or system mouse", "conditions": "for phage homing to PPC1 orthotopic xenografts (in words): i.v. injected phage", "procedure": "as §1, §2"}, "[8]": {"conditions": "phage homing in vivo, TRAMP PIN lesions"}, "[9]": {"conditions": "phage and fluorescein-labeled peptide, TRAMP pre-malignant lesions"}, "[10]": {"conditions": "phage homing in vivo, K14-HPV16/E2 cervical dysplasia"}, "[11]": {"conditions": "phage and fluorescein-labeled peptide, TRAMP tumors"}, "[12]": {"conditions": "phage homing in vivo, PPC1 orthotopic xenografts"}}, "note": "“Also recorded” adds a separate entry of the source. Marks after values point to notes of the source that are not given here."}
{"sequence": "CAGRRSAYC [homing peptide for pre-malignant TRAMP prostate lesions]", "values": [{"measurement": "phage binding to human prostate tumor sections (in words)", "setting": "[1]", "value": "did not bind"}, {"measurement": "phage homing to TRAMP pre-malignant lesions (in words)", "setting": "TRAMP PIN lesions; listed as AGR phage", "value": "selectively home to pre-malignant lesions; also recorded: homed significantly more; also recorded: homes only to pre-malignant lesions; also recorded: marked preference"}, {"measurement": "enrichment to pre-malignant TRAMP lesions relative to nonrecombinant phage", "setting": "TRAMP PIN lesions; phage clones tested in vivo individually", "value": 24, "unit": "fold"}, {"measurement": "Fold over control phage", "setting": "TRAMP PIN lesions; [8]", "value": 18, "unit": "fold"}, {"measurement": "Specific Homing", "setting": "TRAMP PIN lesions; [8]", "value": "Yes"}, {"measurement": "phage homing to K14-HPV16/E2 cervical tumors (in words)", "setting": "[2]", "value": "little homing of the phage"}, {"measurement": "Fold over control phage", "setting": "[2]", "value": 4, "unit": "fold"}, {"measurement": "Specific Homing", "setting": "[2]", "value": "No"}, {"measurement": "co-localization with lymphatic markers podoplanin, VEGFR3, LYVE-1, Prox-1", "setting": "[3]; [9]", "value": "substantial co-localization"}, {"measurement": "localization versus blood vessel markers CD31 and MECA-32", "setting": "[3]; [9]", "value": "entirely distinct"}, {"measurement": "fluorescent peptide in TRAMP prostate tumors (in words)", "setting": "TRAMP prostate tumors [4]", "value": "little or no peptide was seen"}, {"measurement": "phage homing to K14-HPV16/E2 pre-malignant cervical lesions (in words)", "setting": "[5]; i.v. injected phage", "value": "little homing of the phage"}, {"measurement": "Fold over control phage", "setting": "[5]; [10]", "value": 5, "unit": "fold"}, {"measurement": "Specific Homing", "setting": "[5]; [10]", "value": "No"}, {"measurement": "phage in other tissues versus nonrecombinant control phage", "setting": "normal tissues", "value": "Neither phage was found in other tissues"}, {"measurement": "phage homing to MMTV-PyMT breast tumors (in words)", "setting": "MMTV-PyMT breast tumors", "value": "little homing of the phage"}, {"measurement": "Fold over control phage", "setting": "MMTV-PyMT breast tumors", "value": 4, "unit": "fold"}, {"measurement": "Specific Homing", "setting": "MMTV-PyMT breast tumors", "value": "No"}, {"measurement": "Fold over control phage", "setting": "TRAMP prostate tumors [6]", "value": 4, "unit": "fold"}, {"measurement": "Specific Homing", "setting": "TRAMP prostate tumors [6]", "value": "No"}]}
{"sequence": "CREAGRKAC [homing peptide for prostate tumor lymphatics]", "values": [{"measurement": "phage binding to human prostate tumor sections (in words)", "setting": "[1]", "value": "recognizes the lymphatics of human prostate tumors"}, {"measurement": "phage homing to TRAMP pre-malignant lesions (in words)", "setting": "TRAMP PIN lesions", "value": "not to pre-malignant lesions or normal prostate"}, {"measurement": "phage homing to K14-HPV16/E2 cervical tumors (in words)", "setting": "[2]", "value": "slightly positive"}, {"measurement": "Fold over control phage", "setting": "[2]", "value": "7^‡ fold"}, {"measurement": "Specific Homing", "setting": "[2]", "value": "Yes"}, {"measurement": "fluorescent peptide in TRAMP pre-malignant lesions (in words)", "setting": "[3]; fluorescein-conjugated peptide i.v.", "value": "negative"}, {"measurement": "fluorescent peptide in TRAMP prostate tumors (in words)", "setting": "TRAMP prostate tumors [4]", "value": "accumulated in prostate tumors"}, {"measurement": "overlap with podoplanin-positive lymphatic vessels", "setting": "TRAMP prostate tumors [4]; fluorescein-conjugated peptide, prostate tumors", "value": 90, "unit": "%"}, {"measurement": "co-localization with lymphatic markers podoplanin, VEGFR3, LYVE-1, Prox-1", "setting": "TRAMP prostate tumors [4]; [11]", "value": "substantial co-localization"}, {"measurement": "localization versus blood vessel markers CD31 and MECA-32", "setting": "TRAMP prostate tumors [4]; [11]", "value": "entirely distinct"}, {"measurement": "phage in other tissues versus nonrecombinant control phage", "setting": "normal tissues", "value": "Neither phage was found in other tissues"}, {"measurement": "phage homing to normal prostate", "setting": "normal tissues; tumor-free littermates of TRAMP mice", "value": "not to pre-malignant lesions or normal prostate"}, {"measurement": "phage homing to MMTV-PyMT breast tumors (in words)", "setting": "MMTV-PyMT breast tumors", "value": "negative for REA binding"}, {"measurement": "Fold over control phage", "setting": "MMTV-PyMT breast tumors", "value": "8^‡ fold"}, {"measurement": "Specific Homing", "setting": "MMTV-PyMT breast tumors", "value": "Yes"}, {"measurement": "phage binding to cultured PPC1 cells (in words)", "setting": "cultured PPC1 cells", "value": "not to cultured PPC1 cells; also recorded: did not bind"}, {"measurement": "phage homing to PPC1 orthotopic xenografts (in words)", "setting": "[7]; listed as REA phage", "value": "homed"}, {"measurement": "phage homing to PPC1 orthotopic xenografts (in words)", "setting": "[7]; listed as REA-phage", "value": "Significant phage homing"}, {"measurement": "Fold over control phage", "setting": "[7]; [12]", "value": 25, "unit": "fold"}, {"measurement": "Specific Homing", "setting": "[7]; [12]", "value": "Yes"}, {"measurement": "enrichment in TRAMP tumors relative to nonrecombinant phage", "setting": "TRAMP prostate tumors [6]; i.v. injected phage clone", "value": 50, "unit": "fold"}, {"measurement": "phage homing to TRAMP prostate tumors (in words)", "setting": "TRAMP prostate tumors [6]; listed as REA phage", "value": "homes to tumors"}, {"measurement": "phage homing to TRAMP prostate tumors (in words)", "setting": "TRAMP prostate tumors [6]; listed as REA-phage", "value": "accumulate in TRAMP tumors; also recorded: Significant phage homing"}, {"measurement": "Fold over control phage", "setting": "TRAMP prostate tumors [6]", "value": 46, "unit": "fold"}, {"measurement": "Specific Homing", "setting": "TRAMP prostate tumors [6]", "value": "Yes"}]}
